Measurements published in patent US20050074426A1, “Fusions of cytokines and tumor targeting proteins” (priority 2002, published 2005).
Like-named read-outs stand apart in the source and are kept apart here.

Experiments:
[1] = cited from earlier work
[2] = system: L-M mouse fibroblasts (ATCC CCL1.2)
[3] = lethality in RMA-T tumor bearing mice; format: in vivo, C57BL/6 mice; conditions: 3 days after treatment, single dose i.p.
Protocol: (§1) In vivo studies on animal models were approved by the Ethical Committee of the San Raffaele H Scientific Institute and performed according to the prescribed guidelines. C57BL/6 (Charles River Laboratories, Calco, Italy) (16-18 g) were challenged with 5×10^4 RMA-T or TSA living cells, respectively, s.c. in the left flank. Ten-twelve days after tumor implantation, mice were treated, i.p., with 250 μl TNF or RGD-TNF solutions, diluted with endotoxin-free 0.9% sodium chloride. […] Each experiment was carried out with 5 mice per group. The tumor growth was monitored daily by measuring the tumor size with calipers. The tumor area was estimated by calculating r1×r2 π, whereas tumor volume was estimated by calculating r1×r2×r3×4/3 π, where r1 and r2 are the longitudinal and lateral radii, and r3 is the thickness of tumors protruding from the surface of normal skin. Animals were killed before the tumor reached 1.0-1.3 cm diameter. Tumor sizes are shown as mean±SE (5-10 animals per group) and compared by t-test.
Murine TNF administered to animals bearing established s.c. RMA-T tumors, causes 24 h later a reduction in the tumor mass and haemorragic necrosis in the central part of the tumor, followed by a significant growth delay for few days (71). […] In a first set of experiments we investigated the effect of various doses (i.p.) of TNF or RGD-TNF on animal survival. […]

RMA-T lymphoma = assay: anti-tumor activity and survival in RMA-T lymphoma bearing mice; format: in vivo, C57BL/6 mice
Protocol: The Rauscher virus-induced RMA lymphoma of C57BL/6 origin (69) were maintained in vitro in RPMI 1640, 5% fetal bovine serum (FBS), 100 U/ml penicillin, 100 μg/ml streptomycin, 0.25 μg/ml amphotericin B, 2 mM glutamine and 50 μM 2-mercaptoethanol. RMA-T was derived from the RMA cell line by transfection with a construct encoding the Thy 1.1 allele and cultured as described Moro, 1997 #28].
as §1, with “flank.” for “flank. Ten-twelve days after tumor implantation, mice were treated, i.p., with 250 μl TNF or RGD-TNF solutions, diluted with endotoxin-free 0.9% sodium chloride.”
To avoid excessive suffering, the animals were killed when the tumor diameter was greater than 1-1.3 cm.

p75TNFR = target: T1, p75TNFR (Homo sapiens, UniProt P20333); conditions: cited from earlier work
T1 sequence (P20333 23-461): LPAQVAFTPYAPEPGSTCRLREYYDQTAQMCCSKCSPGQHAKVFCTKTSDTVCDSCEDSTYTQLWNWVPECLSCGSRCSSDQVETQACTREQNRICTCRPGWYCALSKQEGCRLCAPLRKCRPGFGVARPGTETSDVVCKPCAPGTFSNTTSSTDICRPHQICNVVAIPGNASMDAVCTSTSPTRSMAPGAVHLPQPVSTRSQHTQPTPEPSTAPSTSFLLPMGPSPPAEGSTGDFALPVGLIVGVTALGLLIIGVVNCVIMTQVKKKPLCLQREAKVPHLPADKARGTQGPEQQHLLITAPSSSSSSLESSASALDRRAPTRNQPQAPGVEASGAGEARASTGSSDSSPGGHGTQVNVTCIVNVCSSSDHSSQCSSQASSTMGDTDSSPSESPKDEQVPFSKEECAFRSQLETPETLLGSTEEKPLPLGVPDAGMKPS

p55TNFR = target: T2, p55TNFR (Homo sapiens, UniProt P19438); conditions: cited from earlier work
T2 sequence (P19438 30-455): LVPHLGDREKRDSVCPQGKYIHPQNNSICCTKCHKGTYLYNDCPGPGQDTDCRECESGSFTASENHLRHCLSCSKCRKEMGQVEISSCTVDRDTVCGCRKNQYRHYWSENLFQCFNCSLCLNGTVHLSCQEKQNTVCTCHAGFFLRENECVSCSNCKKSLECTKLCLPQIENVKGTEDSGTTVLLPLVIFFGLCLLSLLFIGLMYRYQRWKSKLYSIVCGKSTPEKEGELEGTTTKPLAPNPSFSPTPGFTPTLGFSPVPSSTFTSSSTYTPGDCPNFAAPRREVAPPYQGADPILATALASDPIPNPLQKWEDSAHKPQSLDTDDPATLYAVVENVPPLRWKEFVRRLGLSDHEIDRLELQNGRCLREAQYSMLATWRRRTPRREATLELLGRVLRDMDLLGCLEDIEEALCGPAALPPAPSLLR

[4] = dose 1 μg i.v., treated 12 days after tumor implantation
[5] = dose 2 μg i.v., treated 12 days after tumor implantation
[6] = dose 4 μg i.v., treated 12 days after tumor implantation

## TNF: Tumor Necrosis Factor-α; in the examples murine recombinant Met-TNF1-156 produced in E. coli
[1]; bolus, intravenous, humans
  maximum tolerated dose: 218-410 μg/m^2
[1]; systemic administration
  maximum tolerated dose: 8 to 10 µg/kg
[2]
  in vitro cytotoxic activity: (1.2±0.14)×10^8 units/mg
[3]
  LD50 (lethality): 6 µg
RMA-T lymphoma; [4]
  Survival (%) Day 14: 100%
  Survival (%) Day 22: 22%
  Survival (%) Day 32: 0%
RMA-T lymphoma; [5]
  Survival (%) Day 14: 100%
  Survival (%) Day 22: 37%
  Survival (%) Day 32: 0%
RMA-T lymphoma; dose 4 μg i.v., re-challenge with 50.000 RMA-T at day 90
  Survival (%) Day 90 (2nd ch.): 0%
RMA-T lymphoma; [6]
  Survival (%) Day 14: 100%
  Survival (%) Day 22: 70%
  Survival (%) Day 32: 30%
  Survival (%) Day 37: 10%
RMA-T lymphoma; dose 8 μg i.v., treated 12 days after tumor implantation
  Survival (%) Day 14: 0%
RMA-T lymphoma; dose 16 μg i.v., treated 12 days after tumor implantation
  Survival (%) Day 14: 0%
RMA-T lymphoma; single treatment, RGD-TNF 16 μg, TNF all doses
  animals cured: no animals at all were cured
p75TNFR
  Kd: 0.1 nM
p55TNFR
  Kd: 0.5 nM
